# Measured values reported in the NIST ThermoML archive (doi:10.1016/j.fluid.2014.12.033).
# ± gives the expanded uncertainty stated by the source.
# Settings: Liquid
Compound,Normal boiling temperature (DSC),Normal boiling temperature (Distillation)
CCCCC(CC)COP(=O)(O)OCC(CC)CCCC (centres undefined) [bis(2-ethylhexyl) hydrogen phosphate],260 ± 16 °C,–
C1CCCCC1 [cyclohexane],–,82 ± 1 °C
CCCCCCCCO [octan-1-ol],–,193 ± 1 °C
ClC(Cl)Cl [trichloromethane],–,62 ± 1 °C
